According to patent publication EP1285919A1, “C10 Carbonate substituted taxanes as antitumor agents” (Florida State University Research Foundation, Inc., priority 2001, dated 2003):

Tests used:
[1] = system: A375 Human Melanoma Xenografts; experiment: In vivo evaluation against A375 melanoma xenografts
Protocol: In Vivo Evaluation of Antitumor Compounds Against A375 Human Melanoma Xenografts
Antitumor compounds were prepared in a vehicle of 5% ethanol, 5% Cremophor and 90% isotonic saline in the manner as described for Solution 1 of Example 10. Taxol (paclitaxel; Bristol Meyers Squibb) and Taxotere (docetaxel; Rhône-Poulenc Rorer) were obtained as the marketed pharmaceutical drugs. The dosing volume was 0.3 ml per 20 g mouse.
Female NCr-nude mice were implanted subcutaneously with 1 mm^3 A375 melanoma fragments in the flank were sorted into treatment groups of six mice each, except the Taxotere treatment group which was a group of seven mice. […] Dosing was initiated on Day 1. The antitumor compounds were given i.v. at an estimated maximum tolerated dose (MTD) appropriate for each agent on a qd x 1 schedule (single administration of compound). The i.v. taxol was given on the qd x 1 schedule as two split doses (one hour between) of 12 mg/kg per split dose (total dose = 24 mg/kg). Taxol was also administered i.p. on a qd x 5 schedule at a daily dose of 18 mg/kg. Taxotere was given i.v. on a qd x 1 schedule at a dose of 70 mg/kg. The vehicle was administered i.v. to control mice in Group 1 on the qd x 1 schedule. The study was terminated on Day 60. Treatment groups are detailed in Table 7.
The results are summarized in Table 8 and include mean days of survival (MDS), number of toxic deaths, number of survivors, number of complete or partial responses, and number with stable disease. The mean days of survival is the number of days after which a neoplasm reached a size of 2.0 g and the animal was euthanized. A complete response is obtained […].

[2] = system: MX-1 Human Breast Carcinoma Xenograft; experiment: In vivo evaluation of oral administration against MX-1 breast carcinoma xenograft
Protocol: In Vivo Evaluation of the Oral Administration of Antitumor Compounds Against the MX-1 Human Breast Carcinoma Xenograft
The compounds were prepared in the following vehicle: 90% saline, 5% Cremophor, and 5% ethanol.

SK-MES carcinoma = system: SK-MES carcinoma
Protocol: In Vivo Evaluation of Antitumor Compounds Against Human Lung Carcinoma Xenografts
The compounds were prepared in the manner as described for Solution 2 of Example 10. Taxol (paclitaxel, Bristol Meyers Squibb), used as a control, was obtained as the marketed pharmaceutical drug.
Taxol itself was given as a split i.v. dose of 36 mg/kg, with the two 18 mg/kg doses separated by one hour. Vehicle control animals were dosed twice intravenously with half the total volume being given separated by one hour. The study was terminated on Day 60.
(§1) The results are summarized in Table 1 and include mean days of survival (MDS), number of toxic deaths, number of survivors, number of complete or partial responses, and number with stable disease. The mean days of survival is the number of days after which a SKMES neoplasm reached a size of 1.5 g and the animal was euthanized. A complete response is obtained if the tumor is not palpable at the end of the study. A partial response is obtained if the tumor shrinks to a size smaller than its size on Day 1 of the study.
A tumor scoring system was designed to provide a more quantitative ranking of efficacy (therapeutic potential) among the antitumor agents evaluated against the different human solid tumor xenografts. Each mouse in a study was given a score of from 1 to 10 at the end of the study. The scores can be summarized as follows:
The individual score for each mouse was averaged into a mean score for each treatment group. […]

[3] = system: SKMES Human Lung Carcinoma Xenograft; details: Group 3: 40 mg/kg single oral bolus Day 1, 6 mice, study to Day 60
Protocol: The compound was administered as a single bolus by the oral route in a study to investigate the efficacy of this compound against the SKMES human lung cancer xenograft.
Female Nu/Nu mice (6-8 weeks of age; implanted with 1 mm^3 SKMES lung carcinoma fragments in the flank) were sorted into four treatment groups of six mice each. SKMES size ranges and group mean SKMES size ranges were 126-448 mg and 238-241 mg, respectively. […] Treatments were administered as a single oral bolus on Day 1, and the study was terminated on Day 60.
as §1, with “Table 13” for “Table 1”, “of 2.0” for “of 1.5”
The total response rate was 100% with four complete responses and two partial responses. The total response rate is defined as the percentage of evaluable animals (excluding deaths due to procedure or toxicity) in a group that experience complete or partial responses at the termination of the study.

[4] = Group 4: 72.6 mg/kg i.p. qd x 1, 6 mice, study to Day 60
[5] = Group 3: 73 mg/kg single oral bolus Day 1, 6 mice, study to Day 63
[6] = Group 2: 24 mg/kg i.v. qd x 1 (two split doses of 12 mg/kg), 6 mice, study to Day 60
[7] = Group 3: 18 mg/kg i.p. qd x 5, 6 mice, study to Day 60

CCOC(=O)O[C@H]1C(=O)[C@@]2(C)[C@H]([C@H](OC(=O)c3ccccc3)[C@]3(O)C[C@H](OC(=O)[C@H](O)[C@H](C=C(C)C)NC(=O)OC(C)(C)C)C(C)=C1C3(C)C)[C@]1(OC(C)=O)CO[C@@H]1C[C@@H]2O [Compound 1781]
Toxic Deaths ([1]; 1781 i.v. qd x 1 at estimated MTD, six mice): five
Complete Response [1, 4]: 0
Mean Score [1, 4]: 0.5 ± 0.5
Partial Response [1, 4]: 0
Stable Disease [1, 4]: 0
Survivors [1, 4]: 0
Toxic Deaths [1, 4]: 5
mean group weight losses ([1]; mouse, in vivo, iv): 20-30%
Mean Day of Survival (n) ([2]; Group 3: 73 mg/kg single oral bolus Day 1, 6 mice, n=5, 1.5 g endpoint, study to Day 63): 33.3 ± 2.9 (5)
Maximum Weight Loss (Day) ([2]; Group 3: 73 mg/kg single oral bolus Day 1, 6 mice, on Day 5): -9.4% (5)
Complete Response [2, 5]: 0
Partial Response [2, 5]: 0
Stable Disease [2, 5]: 1
Toxic Deaths [2, 5]: 0
survival versus vehicle controls ([2]; single oral bolus Day 1, for 1771 the other two mice of the group): significant survival extensions

CC(=O)O[C@H]1C(=O)[C@@]2(C)[C@H]([C@H](OC(=O)c3ccccc3)[C@]3(O)C[C@H](OC(=O)[C@H](O)[C@@H](NC(=O)c4ccccc4)c4ccccc4)C(C)=C1C3(C)C)[C@]1(OC(C)=O)CO[C@@H]1C[C@@H]2O [Taxol]
survival extension compared to vehicle controls (SK-MES carcinoma; Taxol 36 mg/kg i.v.): 30%
MDS (n) (SK-MES carcinoma; mean days of survival until tumor 1.5 g, i.v. split dose qd x 1, Taxol 36 mg/kg, 1755 49 mg/kg, six mice per group): 16 ± 2.0 (6) days
Toxic Deaths (SK-MES carcinoma; number of mice of six, i.v. split dose qd x 1, Taxol 36 mg/kg, 1755 49 mg/kg): 0
Survivors (SK-MES carcinoma; number of mice of six, study ended Day 60): 0
Stable Disease (SK-MES carcinoma; number of mice of six, tumor below 1.5 g at end of study): 0
Complete Response (SK-MES carcinoma; number of mice of six, tumor not palpable at end of study): 0
Partial Response (SK-MES carcinoma; number of mice of six, tumor smaller than on Day 1): 0
Mean Score (SK-MES carcinoma; tumor score 1 to 10 per mouse, averaged per group (10 = complete response)): 1.3 ± 0.3
MDS (n) ([1]; Group 2: 24 mg/kg i.v. qd x 1 (two split doses of 12 mg/kg), 6 mice, n=4, 2.0 g endpoint, study to Day 60): 18.1 ± 0.6 (4) days
Complete Response [1, 6]: 0
Mean Score [1, 6]: 0.8 ± 0.3
Partial Response [1, 6]: 0
Stable Disease [1, 6]: 0
Survivors [1, 6]: 0
Toxic Deaths [1, 6]: 2
Complete Response [1, 7]: 0
Mean Score [1, 7]: 0 ± 0
Partial Response [1, 7]: 0
Stable Disease [1, 7]: 0
Survivors [1, 7]: 0
Toxic Deaths [1, 7]: 6
animals died of toxicity ([1]; Taxol 18 mg/kg i.p. qd x 5, six mice): six
survival extension compared to Group 1 controls ([1]; i.v. qd x 1, Taxol 24 mg/kg, Taxotere 70 mg/kg): 26%
MDS ([1]; i.v. qd x 1, Taxol 24 mg/kg, Taxotere 70 mg/kg, 2.0 g cut-off): 18.1 days
MDS (n) ([3]; n=6, 2.0 g endpoint): 13.2 ± 1.4(6) days
% Total Response [3]: 0%
Complete Response [3]: 0
Partial Response [3]: 0
Stable Disease [3]: 0
Survivors [3]: 0
Toxic Deaths [3]: 0
